Source: paper PMC12406685, “Thiazole substitution of a labile amide bond—a new option toward antiplasmodial pantothenamide-mimics” (Antimicrobial Agents and Chemotherapy, 2025)
Like-named read-outs stand apart in the source and are kept apart here.

How the values were obtained:
[1] = system: intraerythrocytic P. falciparum; settings: cited from earlier work
[2] = system: intraerythrocytic P. falciparum; experiment: In vitro parasite proliferation assay (SYBR Safe-based fluorescence); type: cell-based, Plasmodium falciparum (3D7 strain); settings: Plasmodium falciparum; intraerythrocytic stage, RPMI-1640 containing 1 µM pantothenate, 96 h; mean ± SEM of three experiments; read-out: IC50 (µM) against Pf at 1 µM Pan
Protocol: Culturing of intraerythrocytic stage P. falciparum parasites (3D7 strain) was carried out using a method adapted from Trager and Jensen ([97]) and Allen and Kirk ([98]). Parasites were maintained within human, male or female, erythrocytes (typically Group O+, Rh+, 4% hematocrit) in RPMI-1640 medium (Thermo Fisher Scientific, catalogue number 72400120) supplemented with 25 mM HEPES, 11 mM glucose, 200 μM hypoxanthine, 24 μg/mL gentamicin and 6 g/L Albumax II on a horizontally rotating shaking incubator (New Brunswick Innova 42/[…]) at 37°C under an atmosphere of 96% nitrogen, 3% carbon dioxide, and 1% oxygen. To evaluate the effect of each compound on the in vitro proliferation of P. falciparum parasites, a SYBR Safe-based fluorescence assay was used as previously described ([32]). All pantothenamide-mimics tested were initially dissolved to a concentration of 200 mM in DMSO. The final DMSO concentration in the assay never exceeded 0.1% (vol/vol). Assays were performed using the same medium used to culture the parasites. […] Assays were set up with synchronous ring-stage P. falciparum-infected erythrocytes in 96-well microtiter plates. Parasites were synchronized using 5% (wt/vol) sorbitol ([100]). […] P. falciparum-infected erythrocytes incubated in the presence of 0.5 μM chloroquine were used as a non-proliferation control, and those incubated in the absence of compounds and chloroquine served as a 100% parasite proliferation control. To minimize “edge effects” ([101], [102]), the outermost rows and columns of the microtiter plates were not used in the proliferation assays and were filled with 200 μL of medium. The plates were then incubated at 37°C for 96 h under a low-oxygen atmosphere. At the end of the incubation, plates were frozen at -80°C to lyse the cells. […] The fluorescence in the non-proliferation control wells was subtracted from the fluorescence readings in the other wells prior to further analysis. Parasite proliferation, calculated as a percentage of the fluorescence measured in the test wells relative to the fluorescence measured in the 100% parasite proliferation control wells, was then plotted against the logarithm of the compound concentration. […] IC50 values (determined from the sigmoidal curves) were averaged from three independent experiments.

[3] = system: human foreskin fibroblasts (HFF); experiment: In vitro HFF proliferation assay (Incucyte confluency); type: cell-based; settings: 10 µM
Protocol: (§1) HFF cells were maintained in vitro in DMEM supplemented with 10% (vol/vol) newborn calf serum, 50 units/mL penicillin, 50 µg/mL streptomycin, 10 µg/mL gentamicin, 0.2 mM L-glutamine, and 0.25 µg/mL amphotericin B, as previously described ([99]). HepG2 cells were maintained in RPMI-1640 medium (Thermo Fisher Scientific, catalogue number 72400120) supplemented with 10% (vol/vol) fetal bovine serum, 50 units/mL penicillin, and 50 µg/mL streptomycin.
In vitro HFF proliferation assays were performed as previously described by Howieson et al. ([32]), with modifications. Confluent HFF cells (in a 75 cm^2 flask) were harvested by treatment with 1 × trypsin–EDTA (0.25% [wt/vol] trypsin +0.2 g/L EDTA) and diluted in 21 mL of DMEM supplemented with 10% [vol/vol] newborn calf serum ([32]). Assays were set up in 96-well microtiter plates in a similar way to that described for the antiplasmodial activity assay. Cycloheximide (10 µM) was used as a non-proliferation control, and 0.1% (vol/vol) DMSO served as a 100% proliferation control. The plates were incubated at 37°C in a CO2 incubator for 96 h, and the Incucyte Live-Cell Analysis System (Essen BioScience) was used to capture cellular changes and assess cell growth in each well over time. Each well was scanned to capture bright field images, and confluency was assessed at the end of the 96 h incubation, which was then used to evaluate the effect of each compound on the proliferation of HFF cells by comparing it to the 100% proliferation control. The bottom of the curve was constrained to 0 when fitting for HFF proliferation assays using GraphPad Prism.

[4] = system: PfPanK; design: method as in PMID 29614109, PMID 11278793, PMID 24333332; settings: mean ± SEM; read-out: Km for pantothenate of PfPanK in parasite lysates; cited from earlier work
[5] = molecular target: T1, HsPanK3 (Homo sapiens, UniProt Q9H999); settings: read-out: Km for pantothenate of HsPanK3, previous reports; cited from earlier work
T1 sequence (Q9H999 12-368): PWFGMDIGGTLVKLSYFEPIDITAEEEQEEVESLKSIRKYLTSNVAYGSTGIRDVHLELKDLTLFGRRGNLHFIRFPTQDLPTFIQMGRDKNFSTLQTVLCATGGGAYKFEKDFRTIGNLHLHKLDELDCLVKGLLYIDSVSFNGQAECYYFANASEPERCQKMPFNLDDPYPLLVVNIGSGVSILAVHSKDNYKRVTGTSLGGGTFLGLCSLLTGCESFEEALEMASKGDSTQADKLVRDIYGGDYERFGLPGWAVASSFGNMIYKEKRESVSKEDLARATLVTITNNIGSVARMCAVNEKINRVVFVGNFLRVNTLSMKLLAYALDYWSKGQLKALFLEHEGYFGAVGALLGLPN

[6] = system: human hepatoblastoma cells (HepG2); experiment: In vitro HepG2 proliferation assay (Incucyte confluency); type: cell-based; settings: 10 µM
Protocol: as §1
In vitro HepG2 proliferation assays were performed similarly to the HFF proliferation assays with modifications. Confluent HepG2 cells were harvested by treatment with 1 × trypsin–EDTA and diluted in RPMI-1640 supplemented with 10% (vol/vol) fetal bovine serum. Assays were set up in 96-well microtiter plates with 20,000 cells per well. Puromycin (10 µM) was used as a non-proliferation control, and 0.1% (vol/vol) DMSO served as a 100% proliferation control. The plates were incubated at 37°C in a CO2 incubator for 72 h, and the Incucyte Live-Cell Analysis System (Essen BioScience) was used to capture cellular changes and assess cell growth in each well over time as described above for the HFF proliferation assays. The bottom of the curve was constrained to 0 when fitting for HepG2 proliferation assays using GraphPad Prism.

[7] = in the presence of pantetheinases, read-out: IC50 against intraerythrocytic P. falciparum

SMILES	IC50 [2] [µM]	further results
CCCCCn1cc(CNC(=O)[C@H](O)C(C)(C)CO)nn1 [compound i]	–	IC50 [1, 7]: 0.056 ± 0.005 µM
CC(C)(CO)[C@@H](O)C(=O)NCc1csc(Cc2ccc3ccccc3c2)n1 [Compound 2d]	6.5 ± 0.1	–
CC(C)(CO)[C@@H](O)C(=O)NCc1cnc(-c2cccc(C(F)(F)F)c2)s1 [Compound 3j]	11 ± 1	–
CC(C)(CO)[C@@H](O)C(=O)NCc1cnc(-c2ccc(C(F)(F)F)cc2)s1 [Compound 3i]	46 ± 6	–
CCCCCc1nnc(CNC(=O)[C@H](O)C(C)(C)CO)s1 [compound v]	–	IC50 [1, 7]: 0.96 ± 0.05 µM
CCCCCCn1cc(CNC(=O)[C@H](O)C(C)(C)CO)nn1 [ii]	–	IC50 [1, 7]: 0.055 ± 0.005 µM
CC(C)(CO)[C@@H](O)C(=O)NCc1csc(-c2ccc(C(F)(F)F)cc2)n1 [Compound 2g]	57 ± 2	–
CCCCCc1cc(CNC(=O)[C@H](O)C(C)(C)CO)no1 [iii]	–	IC50 [1, 7]: 0.072 ± 0.003 µM
C[C@@H]1C[C@@H]([C@H](O)CC2CC(=O)NC(=O)C2)C(=O)[C@@H](C)C1 [Cycloheximide, reference compound]	–	Effect on proliferation of HFF cells (positive control) [3]: completely inhibited the proliferation
CC(C)CCc1csc(CNC(=O)[C@H](O)C(C)(C)CO)n1 [Compound 1b]	2.9 ± 0.2	–
CCCCCc1ncc(CNC(=O)[C@H](O)C(C)(C)CO)s1 [Compound 3b]	12 ± 1	–
CC(C)(CO)[C@@H](O)C(=O)NCCC(=O)O [D-Pantothenate]	–	Km [4]: 0.27 ± 0.095 µM; Km [5]: 17 ± 1 µM
CC(C)(CO)[C@@H](O)C(=O)NCc1csc(-c2cccc(C(F)(F)F)c2)n1 [Compound 2h]	21 ± 1	–
CCCCc1ncc(CNC(=O)[C@H](O)C(C)(C)CO)s1 [Compound 3a]	11 ± 1	–
CCCCCNC(=O)CCNC(=O)[C@H](O)C(C)(C)CO [Compound N5-Pan]	–	IC50 ([1]; absence of pantetheinases, read-out: IC50 in the absence of pantetheinases): 2 ± 0.5 µM; IC50 ([1]; presence of pantetheinases, read-out: IC50 in the presence of pantetheinases): 124 ± 15 µM
CC(C)(CO)[C@@H](O)C(=O)NCc1cnc(-c2ccc(F)cc2)s1 [Compound 3g]	14 ± 2	–
CCCCCCc1ncc(CNC(=O)[C@H](O)C(C)(C)CO)s1 [Compound 3c]	35 ± 2	–
CC(C)(CO)[C@@H](O)C(=O)NCc1cnc(-c2ccc(Cl)cc2)s1 [Compound 3h]	44 ± 4	–
CCCCCc1nc(CNC(=O)[C@H](O)C(C)(C)CO)cs1 [Compound 2a]	5.6 ± 0.2	–
CC(C)(CO)[C@@H](O)C(=O)NCc1csc(-c2ccc(Cl)cc2)n1 [Compound 2f]	3.1 ± 0.3	–
CCCCCCc1csc(CNC(=O)[C@H](O)C(C)(C)CO)n1 [Compound 1d]	4.3 ± 0.4	–
CC(C)(CO)[C@@H](O)C(=O)NCc1cnc(Cc2ccccc2)s1 [Compound 3d]	16 ± 1	–
COc1ccc(C[C@H](N)C(=O)N[C@H]2[C@@H](O)[C@H](n3cnc4c(N(C)C)ncnc43)O[C@@H]2CO)cc1 [puromycin, reference compound]	–	Effect on proliferation of HepG2 cells (positive control) [6]: completely inhibited
CC(C)(CO)[C@@H](O)C(=O)NCc1cnc(CCc2ccccc2)s1 [Compound 3e]	44 ± 1	–
CCCCCCc1cc(CNC(=O)[C@H](O)C(C)(C)CO)no1 [iv]	–	IC50 [1, 7]: 0.16 ± 0.01 µM
CCCCCCc1nc(CNC(=O)[C@H](O)C(C)(C)CO)cs1 [Compound 2b]	5.2 ± 0.6	–
